The text below walks through data of patent US20150209379A1, “TREATMENT OF PROSTATE CANCER AND HEMATOLOGIC NEOPLASMS” (THOMAS JEFFERSON UNIVERSITY, priority 2012, published 2015).

For this assay, the target named is T1, Stat5a (Homo sapiens, UniProt P42229).
T1 sequence (P42229 1-794): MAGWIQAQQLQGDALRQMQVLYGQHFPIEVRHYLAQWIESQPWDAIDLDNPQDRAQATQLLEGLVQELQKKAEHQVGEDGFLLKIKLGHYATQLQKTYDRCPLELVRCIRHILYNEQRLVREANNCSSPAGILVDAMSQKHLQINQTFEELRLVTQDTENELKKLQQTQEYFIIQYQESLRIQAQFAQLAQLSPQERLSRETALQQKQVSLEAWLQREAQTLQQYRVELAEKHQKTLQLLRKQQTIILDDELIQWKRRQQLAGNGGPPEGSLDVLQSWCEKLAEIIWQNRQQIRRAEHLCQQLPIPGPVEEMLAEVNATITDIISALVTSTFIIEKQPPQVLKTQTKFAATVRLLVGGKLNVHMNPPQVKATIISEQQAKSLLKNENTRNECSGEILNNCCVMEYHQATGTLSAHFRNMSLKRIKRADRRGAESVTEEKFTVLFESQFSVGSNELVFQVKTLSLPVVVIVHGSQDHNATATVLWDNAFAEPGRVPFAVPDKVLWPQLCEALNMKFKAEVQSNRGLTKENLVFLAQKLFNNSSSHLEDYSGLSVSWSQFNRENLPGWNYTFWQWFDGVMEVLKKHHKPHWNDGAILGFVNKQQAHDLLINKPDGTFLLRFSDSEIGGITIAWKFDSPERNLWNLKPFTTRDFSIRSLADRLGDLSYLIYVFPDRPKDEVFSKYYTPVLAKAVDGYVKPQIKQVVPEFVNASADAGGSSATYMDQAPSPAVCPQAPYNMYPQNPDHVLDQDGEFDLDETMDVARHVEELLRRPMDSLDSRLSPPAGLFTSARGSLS
Briefly: Stat5a dimerization (FLAG-/MYC-tagged Stat5a co-immunoprecipitation) in PC-3 cells. In kind it is cell-based. Also on record: expressed in transfected cells; host or cells: PC-3 human prostate cancer cells. Conditions: 2 hours pretreatment, then hPrl 10 nM 30 minutes. On the procedure: (§1) FLAG-tagged Stat5a and MYC-tagged Stat5a were generated by standard molecular biology cloning techniques. Plasmid pCMV3-FLAG-Stat5a, pCMV3-MYC-Stat5a and pPr1R were co-transfected using FuGENE6 (Roche) into PC-3 cells (2 μg of each plasmid per 1×10^7 cells). The cells were starved for 20 hours, pretreated with test compound for 2 hours, then stimulated with hPrl (10 nM) in RPMI 1640 without serum for 30 minutes. The cell lysates were immunoprecipitated with 25 μl anti-FLAG M2 […] affinity gel (2 μg/ml, Sigma), anti-MYC pAb (1 μg/ml, Upstate) or normal rabbit serum (NRS). The primary antibodies were used in the immunoblottings at the following concentrations: anti-FLAG pAb (1:1000; Stratagene), anti-MYC mAb (1:1000; Sigma), anti-Stat5a/b mAb (1:250) (Transduction Laboratories) detected by horseradish peroxidase-conjugated secondary antibodies. The results are shown in FIG. 3A for Compound 1 and FIG. 3B for Compound 2.
Lanes 1, 2, 4, 6 and 8 represent cells stimulated with human prolactin (Prl) for 30 minutes which induces dimerization of Stat5. Two hours prior to Prl-stimulation, the cells had been treated with DMSO (lanes 1-4), the control compound C5 (lanes 7 and 8) and either Compound 1 (lanes 5 and 6 in FIG. 3A) or Compound 2 (lanes 5 and 6 in FIG. 3B). […] It should be noted the drug effect in this study was not due to cell apoptosis induction, as the treatment time was only 2 hours. Treatment of at least 48 hours is required for the compound to induce prostate cancer cell apoptosis.
as §1, with “and pPrlR” for “and pPr1R”, “hours, pre-treated” for “hours, pretreated”, “with NBPP” for “with test compound”, “2 h,” for “2 hours,”, “antibodies.” for “antibodies. The results are shown in FIG. 3A for Compound 1 and FIG. 3B for Compound 2.”
Lanes 1, 2, 4, 6 and 8 represent cells stimulated with human prolactin (Prl) for 30 minutes which induces dimerization of Stat5. Two hours prior to Prl-stimulation, the cells had been treated with DMSO (lanes 1-4), the control compound C5 (lanes 5 and 6) or NBPP (lanes 7 and 8) to test whether the Stat5a/b-inhibitor compound, NBPP, would be able to inhibit dimerization of StatS. […] It should be noted the drug effect in this study was not due to cell apoptosis induction, as the treatment time was only 2 hours. Treatment of at least 48 hours is required for the compound to induce prostate cancer cell apoptosis.
FLAG-tagged Stat5a and MYC-tagged Stat5a were generated by standard molecular biology cloning techniques.as follows. […] The primary antibodies were used in the immunoblottings at the following concentrations: anti-FLAG pAb (1:1000; Stratagene), anti-MYC mAb (1:1000; Sigma), anti-Stat5a/b mAb (1:250) (Transduction Laboratories) detected by horseradish peroxidase-conjugated secondary antibodies. […]
Turning to `OC[C@H]1O[C@@H](n2cnc3c(NCc4ccccc4)ncnc32)[C@H](O)[C@@H]1O` [Compound N6BA, N^6-benzyladenosine], the “effect on Stat5a dimerization” value is “effectively inhibited Stat5a dimerization”.
Take `OC[C@H]1O[C@@H](n2cnc3c(NNc4ccccc4)ncnc32)[C@H](O)[C@@H]1O` [Compound 2, (2R,3S,4R,5R)-2-(hydroxymethyl)-5-(6-(2-phenylhydrazinyl)-9H-purin-9-yl)tetrahydrofuran-3,4-diol]: the “effect on Stat5a dimerization” value is recorded as “effectively inhibited Stat5a dimerization”.
In the case of `OC[C@H]1O[C@@H](n2ccc3c(NCc4ccccc4)ncnc32)[C@H](O)[C@@H]1O` [NBPP, N-(phenylmethyl)-7-β-D-ribofuranosyl-7H-pyrrolo[2,3-d]pyrimidin-4-amine], the “effect on Stat5a dimerization” value was “effectively inhibited Stat5a dimerization”.
Regarding `OC[C@H]1O[C@@H](n2cnc3c(N4CCc5ccccc5C4)ncnc32)[C@H](O)[C@@H]1O` [Compound 1, (2R,3R,4S,5R)-2-(6-(3,4-Dihydroisoquinolin-2(1H)-yl)-9H-purin-9-yl)-5-(hydroxymethyl)tetrahydrofuran-3,4-diol], the “effect on Stat5a dimerization” value was “effectively inhibited Stat5a dimerization”.
